Reference: ChEMBL document CHEMBL1140111, “Potent, orally bioavailable delta opioid receptor agonists for the treatment of pain: discovery of N,N-diethyl-4-(5-hydroxyspiro[chromene-2,4'-piperidine]-4-yl)benzamide (ADL5859)” (J Med Chem, 2008)
Activity calls are given as the source filed them. The rule behind the calls is not given here.

Tests used:
Mu-type opioid receptor [1] = molecular target: T1, Mu-type opioid receptor (Homo sapiens, UniProt P35372); test: Displacement of [3H]diprenorphine from human mu opioid receptor in CHO cells at 10 uM; type: cell-based
[2] = molecular target: T2, Kappa-type opioid receptor (Homo sapiens, UniProt P41145); test: Displacement of [3H]diprenorphine from human kappa opioid receptor in CHO cells at 10 uM; type: cell-based
[3] = molecular target: T3, Delta-type opioid receptor (Homo sapiens, UniProt P41143)
Description: Agonist activity at human delta opioid receptor in CHO cells assessed as stimulation of [35S]GTPgammaS binding

[4] = molecular target: T3, Delta-type opioid receptor; test: biochemical
Description: Displacement of [3H]diprenorphine from human delta opioid receptor in CHO cells

[5] = molecular target: T2, Kappa-type opioid receptor; test: Displacement of [3H]diprenorphine from human kappa opioid receptor in CHO cells; type: cell-based
Rattus norvegicus [6] = organism: Rattus norvegicus; test: Antihyperalgesic effect in rat assessed as reversal of Freund's complete adjuvant-induced paw pressure after 60 mins; type: functional, organism-based
Rattus norvegicus [7] = test: Antihyperalgesic effect in rat assessed as reversal of Freund's complete adjuvant-induced paw pressure at 3 mg/kg, po; type: functional
Rattus norvegicus [8] = organism: Rattus norvegicus; test: Antihyperalgesic effect in rat assessed as reversal of Freund's complete adjuvant-induced paw pressure; type: functional
Rattus norvegicus [9] = test: Antidepressant activity in Sprague-Dawley rat assessed as decrease in immobility time at 3 mg/kg, po by forced swim test; type: functional, organism-based; set-up: dose 3 mg/kg
Rattus norvegicus [10] = test: Antidepressant activity in Sprague-Dawley rat assessed as increase in time spent swimming at 3 mg/kg, po by forced swim test; type: functional, organism-based; set-up: dose 3 mg/kg
[11] = Clearance in rat at 0.25 mg/kg, iv and 3.0 mg/kg, po; type: ADME, organism-based; details: in vivo
[12] = Volume of distribution at steady state in rat at 0.25 mg/kg, iv and 3.0 mg/kg, po; type: ADME, organism-based; details: in vivo, read-out: Vdss
[13] = Half life in rat at 3.0 mg/kg, po; type: ADME, organism-based; set-up: dose 3 mg/kg, route oral; details: in vivo
[14] = Cmax in rat at 0.25 mg/kg, iv and 3.0 mg/kg, po; type: ADME, organism-based; details: in vivo
[15] = Oral bioavailability in rat at 3 mg/kg; type: ADME, organism-based; details: in vivo
[16] = Clearance in dog at 1 mg/kg, iv and 3.0 mg/kg, po; type: ADME, organism-based, Canis lupus familiaris; details: in vivo
[17] = Volume of distribution at steady state in dog at 1 mg/kg, iv and 3.0 mg/kg, po; type: ADME, organism-based, Canis lupus familiaris; details: in vivo, read-out: Vdss
[18] = Half life in dog at 3.0 mg/kg, po; type: ADME, organism-based, Canis lupus familiaris; set-up: dose 3 mg/kg, route oral; details: in vivo
[19] = Cmax in dog at 1 mg/kg, iv and 3.0 mg/kg, po; type: ADME, organism-based, Canis lupus familiaris; details: in vivo
[20] = Oral bioavailability in dog at 3 mg/kg; type: ADME, organism-based, Canis lupus familiaris; details: in vivo
[21] = Fraction unbound in rat plasma protein at 2 uM; type: ADME, cell-free; details: read-out: PPB
[22] = Fraction unbound in dog plasma at 2 uM; type: ADME, cell-free, Canis lupus familiaris; details: read-out: PPB
Liver microsomes [23] = test: Metabolic stability in human liver microsomes; type: ADME, Microsome
[24] = Fraction unbound in human plasma at 2 uM; type: ADME, cell-free; details: read-out: PPB
Liver microsomes [25] = test: Metabolic stability in rat liver microsomes; type: ADME, Microsome
[26] = Metabolic stability in dog liver microsomes after 30 mins; type: ADME, Canis lupus familiaris, Microsome; details: read-out: Stability
Rattus norvegicus [27] = test: Toxicity in rat assessed as EEG disturbances at 10 mg/kg and 30 mg/kg, po; type: organism-based; details: in vivo
Rattus norvegicus [28] = test: Increase in locomotory activity in rat upto 1000 mg/kg, po; type: functional, organism-based; set-up: dose 1000 mg/kg
Rattus norvegicus [29] = test: Increase in stereotypic behavior in rat upto 1000 mg/kg, po; type: functional, organism-based; set-up: dose 1000 mg/kg
Rattus norvegicus [30] = test: Convulsion activity in rat upto 1000 mg/kg, po; type: functional, organism-based; set-up: dose 1000 mg/kg
Mus musculus [31] = test: Increase in locomotory activity in mouse upto 1000 mg/kg, po; type: functional, organism-based; set-up: dose 1000 mg/kg
Mus musculus [32] = test: Increase in stereotypic behavior in mouse upto 1000 mg/kg, po; type: functional, organism-based; set-up: dose 1000 mg/kg
Mus musculus [33] = test: Convulsion activity in mouse upto 1000 mg/kg, po; type: functional, organism-based; set-up: dose 1000 mg/kg
Rattus norvegicus [34] = test: Antihyperalgesic effect in rat assessed as reversal of Freund's complete adjuvant-induced paw pressure at 3 mg/kg, po in presence of naltrindole; type: functional, organism-based; set-up: dose 3 mg/kg
Rattus norvegicus [35] = test: Antidepressant activity in Sprague-Dawley rat assessed as increase in time spent swimming at 3 mg/kg, po in presence of naltrindole by forced swim test; type: functional, organism-based; set-up: dose 3 mg/kg
Rattus norvegicus [36] = organism: Rattus norvegicus; test: Antihyperalgesic effect in rat assessed as reversal of Freund's complete adjuvant-induced paw pressure after 30 mins; type: functional, organism-based
[37] = molecular target: Voltage-gated inwardly rectifying potassium channel KCNH2 (Homo sapiens, UniProt Q12809)
Description: Inhibition of human ERG channel in HEK293 cells by voltage-clamp method

Mu-type opioid receptor [38] = molecular target: T1, Mu-type opioid receptor; test: Displacement of [3H]diprenorphine from human mu opioid receptor in CHO cells; type: cell-based

T2 sequence (P41145 whole entry): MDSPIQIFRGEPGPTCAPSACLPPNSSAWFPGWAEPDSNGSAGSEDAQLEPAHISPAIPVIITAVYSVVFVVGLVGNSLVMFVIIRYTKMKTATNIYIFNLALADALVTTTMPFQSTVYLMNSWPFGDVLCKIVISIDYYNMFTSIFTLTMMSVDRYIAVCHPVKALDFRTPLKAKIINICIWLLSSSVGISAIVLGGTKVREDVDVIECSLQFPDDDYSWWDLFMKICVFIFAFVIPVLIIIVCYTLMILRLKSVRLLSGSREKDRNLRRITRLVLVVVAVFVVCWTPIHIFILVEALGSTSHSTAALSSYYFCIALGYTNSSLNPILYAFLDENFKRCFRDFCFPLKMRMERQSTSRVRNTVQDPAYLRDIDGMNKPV
T1 sequence (P35372 whole entry): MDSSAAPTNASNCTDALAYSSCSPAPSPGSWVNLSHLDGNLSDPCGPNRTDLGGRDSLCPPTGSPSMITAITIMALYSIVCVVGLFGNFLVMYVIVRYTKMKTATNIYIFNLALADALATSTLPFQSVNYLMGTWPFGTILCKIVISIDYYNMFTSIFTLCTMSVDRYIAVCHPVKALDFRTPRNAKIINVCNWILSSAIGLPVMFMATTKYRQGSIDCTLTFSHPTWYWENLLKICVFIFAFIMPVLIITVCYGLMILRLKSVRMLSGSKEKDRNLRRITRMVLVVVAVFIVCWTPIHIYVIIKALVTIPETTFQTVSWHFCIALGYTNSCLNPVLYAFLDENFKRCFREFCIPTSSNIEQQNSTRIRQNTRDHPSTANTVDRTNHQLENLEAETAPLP
T3 sequence (P41143 whole entry): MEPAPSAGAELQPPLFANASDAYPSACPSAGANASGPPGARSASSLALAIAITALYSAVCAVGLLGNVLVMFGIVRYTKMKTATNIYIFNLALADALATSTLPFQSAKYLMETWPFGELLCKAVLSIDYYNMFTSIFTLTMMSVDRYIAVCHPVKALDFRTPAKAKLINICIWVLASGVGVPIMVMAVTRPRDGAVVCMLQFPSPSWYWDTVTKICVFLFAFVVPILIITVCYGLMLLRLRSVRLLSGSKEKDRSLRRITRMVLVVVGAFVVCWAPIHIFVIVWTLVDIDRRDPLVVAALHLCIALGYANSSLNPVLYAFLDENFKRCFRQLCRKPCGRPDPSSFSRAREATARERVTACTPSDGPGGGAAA
Sequence of Voltage-gated inwardly rectifying potassium channel KCNH2 (Q12809 whole entry): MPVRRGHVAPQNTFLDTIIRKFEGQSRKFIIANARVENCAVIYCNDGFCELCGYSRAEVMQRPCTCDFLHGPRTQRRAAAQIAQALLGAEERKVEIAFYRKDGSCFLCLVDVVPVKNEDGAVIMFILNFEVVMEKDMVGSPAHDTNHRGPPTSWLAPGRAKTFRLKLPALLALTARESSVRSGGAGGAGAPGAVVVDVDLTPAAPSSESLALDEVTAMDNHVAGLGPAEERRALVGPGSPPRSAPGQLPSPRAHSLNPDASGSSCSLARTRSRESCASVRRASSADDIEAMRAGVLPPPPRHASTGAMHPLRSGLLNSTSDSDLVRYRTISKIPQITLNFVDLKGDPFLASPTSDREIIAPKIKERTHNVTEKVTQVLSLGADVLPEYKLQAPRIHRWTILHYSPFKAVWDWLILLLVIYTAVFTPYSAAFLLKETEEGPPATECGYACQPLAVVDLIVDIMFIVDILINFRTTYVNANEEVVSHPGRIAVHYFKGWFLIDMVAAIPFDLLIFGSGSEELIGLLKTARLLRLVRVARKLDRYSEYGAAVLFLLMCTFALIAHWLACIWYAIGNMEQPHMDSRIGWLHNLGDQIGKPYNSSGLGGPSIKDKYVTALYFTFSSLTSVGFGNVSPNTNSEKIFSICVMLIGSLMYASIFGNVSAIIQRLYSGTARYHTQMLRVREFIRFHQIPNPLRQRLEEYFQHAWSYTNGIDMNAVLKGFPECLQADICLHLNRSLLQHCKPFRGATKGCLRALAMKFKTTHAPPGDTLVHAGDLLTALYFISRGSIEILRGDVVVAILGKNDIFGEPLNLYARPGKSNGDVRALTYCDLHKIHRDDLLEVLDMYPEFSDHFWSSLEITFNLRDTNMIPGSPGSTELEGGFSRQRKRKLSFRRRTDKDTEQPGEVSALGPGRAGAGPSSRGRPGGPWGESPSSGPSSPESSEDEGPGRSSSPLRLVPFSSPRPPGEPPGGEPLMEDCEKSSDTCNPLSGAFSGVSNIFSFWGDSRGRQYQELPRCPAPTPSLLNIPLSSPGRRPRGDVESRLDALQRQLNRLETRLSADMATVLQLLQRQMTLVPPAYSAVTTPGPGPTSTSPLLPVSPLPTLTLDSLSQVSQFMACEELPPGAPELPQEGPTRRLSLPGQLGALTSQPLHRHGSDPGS

CCN1CCC2(C=C(c3ccc(C(=O)N(CC)CC)cc3)c3ccccc3O2)CC1
inhibition (Mu-type opioid receptor [1]): 13%
inhibition [2]: 13%

CCN(CC)C(=O)c1ccc(C2=CC3(CCN(C)CC3)Oc3ccccc32)cc1
inhibition (Mu-type opioid receptor [1]): 12%
inhibition [2]: 24%
EC50 [3]: 89 nM
Ki [4]: 3.5 nM

O=S(=O)(Cc1ccc(Cl)cc1)N1CCC2(CC1)CC(c1ccccc1)c1ccccc1O2 (stereo not given)
Ki [4]: 500 nM

CCN(CC)C(=O)c1ccc(C2=CC3(CCNCC3)Oc3c(O)cccc32)cc1
inhibition (Mu-type opioid receptor [1]): 4%
inhibition [2]: 28%
Ki [4]: 360 nM

COC(=O)c1ccc(C2=CC3(CCNCC3)Oc3ccccc32)cc1
inhibition (Mu-type opioid receptor [1]): 54%
Ki [5]: 520 nM

CCN(CC)C(=O)c1ccc(C2=CC3(CCNCC3)Oc3cccc(O)c32)cc1 [ADL-5859]
Activity (Rattus norvegicus [6]): Active
inhibition (Mu-type opioid receptor [1]): 32%
inhibition [2]: 37%
Activity (Rattus norvegicus [7]): 100%
ED50 (Rattus norvegicus [8]): 1.4 mg/kg
Activity (Rattus norvegicus [9]): Active
Activity (Rattus norvegicus [10]): Active
clearance [11]: 30 mL/min/kg
Vd [12]: 10.7 L/kg
half-life [13]: 5.3 h
Cmax [14]: 117 nM
bioavailability [15]: 33.4%
clearance [16]: 6.67 mL/min/kg
Vd [17]: 2.5 L/kg
half-life [18]: 4.7 h
Cmax [19]: 1730 nM
bioavailability [20]: 66.5%
fraction unbound at 2 µM [21]: 0.159
fraction unbound at 2 µM [22]: 0.152
Stability (Liver microsomes [23]): 64.9%
fraction unbound at 2 µM [24]: 0.419
Stability (Liver microsomes [25]): 69.2%
remaining at 0.5 h [26]: 98.7%
Activity (Rattus norvegicus [27]): Non-toxic
Activity (Rattus norvegicus [28]): Non-toxic
Activity (Rattus norvegicus [29]): Non-toxic
Activity (Rattus norvegicus [30]): Non-toxic
Activity (Mus musculus [31]): Non-toxic
Activity (Mus musculus [32]): Non-toxic
Activity (Mus musculus [33]): Non-toxic
Activity (Rattus norvegicus [34]): inactive
Activity (Rattus norvegicus [35]): inactive
Activity (Rattus norvegicus [36]): Active
EC50 [3]: 20 nM
IC50 [37]: 78000 nM
Ki [4]: 0.84 nM

C=CCN1C[C@H](C)N([C@H](c2ccc(C(=O)N(CC)CC)cc2)c2cccc(OC)c2)C[C@H]1C
inhibition (Mu-type opioid receptor [1]): 25%
inhibition [2]: 28%

FC(F)(F)c1ccc(C2=CC3(CCNCC3)Oc3ccccc32)cc1
inhibition (Mu-type opioid receptor [1]): 42%
Ki [5]: 2000 nM
Ki [4]: 150 nM

N#Cc1ccc(C2=CC3(CCNCC3)Oc3ccccc32)cc1
inhibition (Mu-type opioid receptor [1]): 60%
inhibition [2]: 63%
EC50 [3]: 200 nM
Ki [4]: 18 nM

c1ccc(C2CC3(CCNCC3)Oc3ccccc32)cc1 (stereo not given)
Ki [4]: 160 nM

Cc1ccc(C2=CC3(CCNCC3)Oc3ccccc32)cc1
inhibition (Mu-type opioid receptor [1]): 49%
inhibition [2]: 57%

O=C(O)c1ccc(C2=CC3(CCNCC3)Oc3ccccc32)cc1
inhibition (Mu-type opioid receptor [1]): 13%
inhibition [2]: 14%
EC50 [3]: 220 nM
Ki [4]: 11 nM

CCN(CC)C(=O)c1ccc(C2=CC3(CCNCC3)Oc3ccc(O)cc32)cc1
inhibition (Mu-type opioid receptor [1]): 36%
Activity (Rattus norvegicus [7]): 35%
Ki [5]: 830 nM
EC50 [3]: 1.4 nM
IC50 [37]: 19800 nM
Ki [4]: 0.43 nM

Oc1ccc(C2=CC3(CCNCC3)Oc3ccccc32)cc1
inhibition (Mu-type opioid receptor [1]): 54%
inhibition [2]: 58%
EC50 [3]: 220 nM
IC50 [37]: 643 nM
Ki [4]: 59 nM

COc1ccc(C2=CC3(CCNCC3)Oc3ccccc32)cc1
inhibition (Mu-type opioid receptor [1]): 42%
inhibition [2]: 42%

C=CCN1C[C@H](C)N([C@H](c2ccc(C(=O)N(CC)CC)cc2)c2cccc(O)c2)C[C@H]1C
Ki [2]: 130 nM
Ki [5]: 3400 nM
Ki (Mu-type opioid receptor [38]): 260 nM
EC50 [3]: 0.4 nM
Ki [4]: 0.32 nM

CCN(CC)C(=O)c1ccc(C2=CC3(CCN(C(C)=O)CC3)Oc3ccccc32)cc1
inhibition (Mu-type opioid receptor [1]): 14%
inhibition [2]: 2%
IC50 [37]: 47400 nM
Ki [4]: 1300 nM

CCN(CC)C(=O)c1cccc(C2=CC3(CCNCC3)Oc3ccccc32)c1
inhibition (Mu-type opioid receptor [1]): 12%
inhibition [2]: 10%
Ki [4]: 330 nM

C1=C(c2ccccc2)c2ccccc2OC12CCNCC2
inhibition (Mu-type opioid receptor [1]): 42%
Ki [5]: 3400 nM

CCN(CC)C(=O)c1ccc(C2=CC3(CCNCC3)Oc3cc(O)ccc32)cc1
inhibition (Mu-type opioid receptor [1]): 35%
inhibition [2]: 39%

CCN(CC)C(=O)c1ccccc1C1=CC2(CCNCC2)Oc2ccccc21
inhibition (Mu-type opioid receptor [1]): 12%
inhibition [2]: 45%
